Experimental data: patent US4795814A, “Process for preparing novel dihydropyridine derivatives” (Otsuka Pharmaceutical Co., Ltd., priority 1984, dated 1989)
Where two headings read alike, the source gives them in different places.

Experiments:
[1] = molecular target: T1, Calmodulin-dependent cyclic-AMP phosphodiesterase (EC 3.1.4.17) (Bos taurus, UniProt P14100); assay: Pharmacological Test-2 (2): Cyclic-AMP phosphodiesterase inhibitory activity (EGTA in place of CaCl2); format: biochemical, bovine
T1 construct: An enzyme substance isolated from the heart of bovine and purified partially; from tissue; host or cells: bovine heart
Description: (§1) (2) Calmodulin-dependent cyclic-AMP phosphodiesterase (EC 3.1.4.17): An enzyme substance isolated from the heart of bovine and purified partially by a method of modified version of the disclosure in H. C. Ho, T. S. Teo, et al.: "Biochim. Biophys. Acta", 429, 461 (1976).
(§2) (3) 5'-Nucleotidase (EC 3.1.3.5): Grade IV substance (isolated from Crotalus adamanteus venom) manufactured by Sigma & Co.
(§3) (4) Others: Remainder of the reagents used in the test were those of reagent grade chemicals manufactured by Wako Pure-Chemical Industries, Ltd.
(§4) Calmodulin inhibitory activity of each of the test compounds was measured by a method of modified version of the disclosure in T. S. Teo and T. H. Wang: "J. Bio. Chem.", 248, 588 (1973).
(§5) (3) 5'-Nucleotidase: One unit thereof hydrolyzes 1.0 micromole of inorganic phosphorus from adnosine 5'-monophosphate per minute at pH 9.0 at 37° C.
(§6) 40 mM of Imidazol, 20 mM of MgCl2, 20 mM of CaCl2, 0.008 […] of cyclic-AMP phosphodiesterase, 1.0 unit of calmodulin, 0.2 unit of 5'-nucleotidase and 1.0 ml of 10 mM-tris(hydroxymethyl)aminomethane/HCl buffer solution (pH 7.0) containing 0.5 mM of cyclic-AMP were mixed together, and reacted at 30° C. for 30 minutes. Each of the test compounds were dissolved in methanol or N,N-dimethylformamide as the solvent, provided that the quanitty of the solvent was not exceed 2% of the total amount of the mixture. After the reaction was completed, the reaction mixture was ice-cooled, and 0.5 ml each of aqueous solutions of 16.5%-trichloroacetic acid, 1%-thiourea, 3%-ammonium ferrous sulfate were respectively added to the reaction mixture. Further, 0.15 ml of 4.4%-ammonium molibdate solution was added to the mixture and the whole of the mixture was stirred, and was centrifuged at 3,000 r.p.m. for 10 minutes. Then, the centrifuged mixture was allowed to stand at a room temperature for 20 minutes. The OD660 nm (optical density at 660 nm) was measured.
(2) Cyclic-AMP phosphodiesterase inhibitory activity:
The reaction was conducted by a method similar to that described in (1) as mentioned above, except that 1 mM of EGTA [ethylene glycol-bis(β-aminoethyl ether)-N,N-tetraacetic acid] was used in place of 20 mM of CaCl2. The reaction was conducted for 3 hours.

[2] = molecular target: T2, Calmodulin-cyclic-AMP phosphodiesterase (Bos taurus, UniProt P14100+P62157); assay: Pharmacological Test-2 (1): Calmodulin-cyclic-AMP phosphodiesterase inhibitory activity (with calmodulin, CaCl2); format: biochemical, bovine; details: in the presence of calmodulin, CaCl2, pH 7.0, 30° C., 30 minutes
T2 construct: An enzyme substance isolated from the heart of bovine and purified partially; which was isolated from the brain of bovine, and purified so as to be considered as a single substance; from tissue; host or cells: bovine heart (phosphodiesterase); the calmodulin is a bovine brain product of Amano & Co
Description: (1) Calmodulin: A calmodulin product manufactured by Amano & Co., which was isolated from the brain of bovine, and purified so as to be considered as a single substance with respect to SDS-page (polyacrylamide gel electrophoresis) method.
as §1, §2, §3, §4
(2) Calmodulin: One unit thereof stimulates 0.015 activated unit of cyclic-AMP phosphodiesterase to 50% of the maximum activity of the enzyme.
as §5
(3) Reactions in the tests (1) Calmodulin-cyclic-AMP phosphodiesterase inhibitory activity:
as §6

[3] = system: SHR-rats (spontaneously hypertensive rats); assay: Pharmacological Test-1: vasodilative effect, systolic blood pressure of SHR-rats by tail cuff method after oral administration; format: in vivo; details: 30 mg/kg p.o.
Description: Vasodilative effects of the dihydropyridine derivatives of the present invention were determined by measuring the systolic blood pressures of test animals before and after the administration of test compound.
Systolic blood pressures and heart beat of SHR-rats (spontaneously hypertensive rats) were determined by a "tail cuff method". Thus the test animal was placed in a thermostat chamber (Type: FR-12RS, manufactured by Isuze & Co.) and was warmed at 40° C. for 15 minutes so as to vasodilate the tail arteria, the systolic blood pressures were measured by an electro sphygmomanometer (Type: PE-300, manufactured by Narco-Biosystems, Inc.) and recorded by an ink-writing recorder (Type: RECTIHORIZ 8s, manufactured by San-Ei Instrument & Co.). The experiments were conducted under non-anesthetized and semi-confinement conditions. The test compound was orally administered forcedly by using a sonde for oral administration. The test compound was suspended in 0.15%-gum arabic powder aqueous solution so as to make the quantity of the test compound to 2.5 ml/kg. The test animal was not fasted, and the systolic blood pressures (mm-Hg) were measured before the administration (hereinafter referred to as "PRE") and after the administration (8, 24, 30, 48, 54 and 72 hours after the administration) of the test compound. The data of systolic blood pressure measured before the administration are shown in absolute value of mmHg, and the data measured after the administration are shown in the differences from the absolute values.

[4] = 1 mM EGTA in place of CaCl2, 3 hours, read-out: Cyclic-AMP phosphodiesterase IC50 (converted)

T1 sequence (P14100 1-514 isoform P14100-2): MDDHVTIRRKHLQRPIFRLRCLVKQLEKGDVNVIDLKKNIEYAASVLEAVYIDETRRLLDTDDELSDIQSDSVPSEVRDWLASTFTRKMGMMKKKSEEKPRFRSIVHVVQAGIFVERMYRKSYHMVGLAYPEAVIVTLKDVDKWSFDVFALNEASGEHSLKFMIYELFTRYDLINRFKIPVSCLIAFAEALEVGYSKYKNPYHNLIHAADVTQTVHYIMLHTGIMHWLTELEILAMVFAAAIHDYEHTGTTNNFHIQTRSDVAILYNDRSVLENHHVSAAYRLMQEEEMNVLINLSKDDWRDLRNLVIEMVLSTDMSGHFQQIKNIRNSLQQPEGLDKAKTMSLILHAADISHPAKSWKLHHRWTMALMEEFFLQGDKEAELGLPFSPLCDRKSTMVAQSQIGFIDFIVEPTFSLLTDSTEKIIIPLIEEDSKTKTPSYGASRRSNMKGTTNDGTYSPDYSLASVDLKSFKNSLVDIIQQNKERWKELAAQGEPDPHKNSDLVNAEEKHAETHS

Row | Compound | IC50 [1, 4] | also measured
1 | COC(=O)C1=C(C)NC(C)=C(C(=O)OC/C=C/c2ccc(OC(C)=O)cc2)C1c1cccc([N+](=O)[O-])c1 (stereo not drawn) [Example 14] | 98.7 µM | 
2 | COC(=O)C1=C(C)NC(C)=C(C(=O)OC/C=C/c2ccc(O)cc2)C1c1cccc([N+](=O)[O-])c1 (stereo not drawn) [Test Compound 1, Methyl 3-(4-hydroxyphenyl)-2(E)-propenyl 1,4-dihydro-2,6-dimethyl-4-(3-nitrophenyl)pyridine-3,5-dicarboxylate] | 129 µM | IC50 [2]: 8.83 µM
3 | COC(=O)C1=C(C)NC(C)=C(C(=O)OC/C=C/c2ccccc2)C1c1cccc([N+](=O)[O-])c1 (stereo not drawn) [Test Compound 2, Methyl 3-phenyl-2(E)-propenyl 1,4-dihydro-2,6-dimethyl-4-(3-nitrophenyl)pyridine-3,5-dicarboxylate] | > 223 µM | 
4 | COC(=O)C1=C(C)NC(C)=C(C(=O)OC/C=C/C=C/c2ccc(O)cc2)C1c1cccc([N+](=O)[O-])c1 (stereo not drawn) [Test Compound 3, Methyl 5-(4-hydroxyphenyl)-2(E),4(E)-pentadienyl 1,4-dihydro-2,6-dimethyl-4-(3-nitrophenyl)-pyridine-3,5-dicarboxylate] | > 204 µM | 
5 | COC(=O)C1=C(C)NC(C)=C(C(=O)OC/C=C/c2ccc(O)c(OC)c2)C1c1cccc([N+](=O)[O-])c1 (stereo not drawn) [Test Compound 7, Methyl 3-(3-methoxy-4-hydroxyphenyl)-2(E)-propenyl 1,4-dihydro-2,6-dimethyl-4-(3-nitrophenyl)pyridine-3,5-dicarboxylate] | 174 µM | 
6 | COC(=O)C1=C(C)NC(C)=C(C(=O)OC/C=C/c2ccc(OC)cc2)C1c1cccc([N+](=O)[O-])c1 (stereo not drawn) [Test Compound 8] | > 209 µM | 
7 | COC(=O)C1=C(C)NC(C)=C(C(=O)OC/C=C/c2ccc(O)c(Cl)c2)C1c1cccc([N+](=O)[O-])c1 (stereo not drawn) [Test Compound 9, Methyl 3-(3-chloro-4-hydroxyphenyl)-2(E)-propenyl 1,4-dihydro-2,6-dimetyyl-4-(3-nitrophenyl)pyridine-3,5-dicarboxylate] | > 200 µM | 
8 | COC(=O)C1=C(C)NC(C)=C(C(=O)OCC#Cc2ccc(O)cc2)C1c1cccc([N+](=O)[O-])c1 (stereo not drawn) [Test Compound 10, Methyl 3-(4-hydroxyphenyl)-2-propynyl 1,4-dihydro-2,6-dimetyyl-4-(3-nitrophenyl)-pyridine-3,5-dicarboxylate] | 28.1 µM | IC50 [2]: 1.69 µM
9 | COC(=O)C1=C(C)NC(C)=C(C(=O)OC/C=C/c2ccccc2O)C1c1cccc([N+](=O)[O-])c1 (stereo not drawn) [Test Compound 11, Methyl 3-(2-hydroxyphenyl)-2(E)-propenyl 1,4-dihydro-2,6-dimethyl-4-(3-nitrophenyl)-pyridine-3,5-dicarboxylate] | 26.9 µM | 
10 | COC(=O)C1=C(C)NC(C)=C(C(=O)OC/C=C/c2ccc(O)cc2)C1c1ccccc1C(F)(F)F (stereo not drawn) [Test Compound 12] | > 205 µM | 
11 | COC(=O)C1=C(C)NC(C)=C(C(=O)OCC/C=C/c2ccc(SC)cc2)C1c1cccc([N+](=O)[O-])c1 (stereo not drawn) [Test Compound 13, Methyl 4-(4-methylthiophenyl)-3(E)-butenyl 1,4-dihydro-2,6-dimethyl-4-(3-nitrophenyl)-pyridine-3,5-dicarboxylate] | 0.452 µM | IC50 [2]: 0.122 µM
12 | COC(=O)C1=C(C)NC(C)=C(C(=O)OC/C=C/c2ccc(O)cc2)C1c1ccccc1 (stereo not drawn) [Test Compound 15, Methyl 3-(4-hydroxyphenyl)-2(E)-propenyl 1,4-dihydro-2,6-dimethyl-4-phenylpyridine-3,5-dicarboxylate] | 76.3 µM | 
13 | COC(=O)C1=C(C)NC(C)=C(C(=O)OC/C=C/c2ccc(O)cc2)C1c1ccccc1C (stereo not drawn) [Test Compound 16, Methyl 3-(4-hydroxyphenyl)-2(E)-propenyl 1,4-dihydro-2,6-dimethyl-4-(2-methylphenyl)-pyridine-3,5-dicarboxylate] | 134 µM | 
14 | COC(=O)C1=C(C)NC(C)=C(C(=O)OC/C=C/c2cccc(O)c2)C1c1ccccc1[N+](=O)[O-] (stereo not drawn) [Test Compound 17, Methyl 3-(3-hydroxyphenyl)-2(E)-propenyl 1,4-dihydro-2,6-dimethyl-4-(2-nitrophenyl)-pyridine-3,5-dicarboxylate] | 53 µM | IC50 [2]: 1.94 µM
15 | COC(=O)C1=C(C)NC(C)=C(C(=O)OCCN(C)Cc2ccccc2)C1c1cccc([N+](=O)[O-])c1 (stereo not drawn) [Test Compound 18, Methyl 2-(N--methyl-N--benzylamino)ethyl 1,4-dihydro-2,6-dimetyyl-4-(3-nitrophenyl)pyridine-3,5-dicarboxylate, reference compound] |  | IC50 [1]: 27.1 µM
16 | methyl 4-[(1-ethoxy)ethoxy]cinnamyl 1,4-dihydro-2,6-dimethyl-4-(3-nitrophenyl)pyridine-3,5-dicarboxylate [Example 1] |  | Blood pressure after the administration, difference from the PRE value ([3]; 24 hours): -41.0 mm-Hg; Blood pressure after the administration, difference from the PRE value ([3]; 30 hours): -52.0 mm-Hg; Blood pressure after the administration, difference from the PRE value ([3]; 48 hours): -26.5 mm-Hg; Blood pressure after the administration, difference from the PRE value ([3]; 54 hours): -19.8 mm-Hg; Blood pressure after the administration, difference from the PRE value ([3]; 72 hours): -12.5 mm-Hg
